Counter-ions that a name gives are not always drawn.
How the values were obtained:
[1] = system: bacterial strains that express the class D cephalosporinase OXA-15; test: Synergy MIC / standard BLI potentiation MIC assay, strains expressing OXA-15; format: cell-based, E. coli; conditions: in the presence of a β-lactam; comparator Avibactam (comparator compound CCC)
In short: (§1)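 Broth microdilution in CAMHB per CLSI, ~10^5 CFU/mL, 18-20 h at 37° C; MIC is lowest concentration with no visible turbidity. Potentiation: β-lactam 128-0.13 μg/mL with BLI fixed at 4 μg/mL. Synergy: BLI serially diluted with β-lactam fixed. Engineered E. coli kept on 25 μg/mL tetracycline.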

[2] = system: bacterial strains that express KPC β-lactamases; test: Synergy MIC / standard BLI potentiation MIC assay, strains expressing KPC β-lactamases; format: cell-based; conditions: more active for at least one KPC strain and/or better spectrum of activity than Avibactam; in the presence of a β-lactam
In short: as §1

| SMILES | activity against bacterial strains that express the class D cephalosporinase OXA-15, compared with Avibactam [1] | activity and/or spectrum of activity against bacterial strains that express KPC β-lactamases, compared with Avibactam [2] |
| --- | --- | --- |
| O=C1N2C[C@@H](CC[C@H]2c2nnc(CCCCNC3CCNCC3)o2)N1OS(=O)(=O)O [Compound 772, (2S,5R)-7-oxo-2-(5-(4-(piperidin-4-ylamino)butyl)-1,3,4-oxadiazol-2-yl)-1,6-diazabicyclo[3.2.1]octan-6-yl hydrogen sulfate] | more active than Avibactam | more active than Avibactam |
| N[C@H]1C[C@@H](CCc2nnc([C@@H]3CC[C@@H]4CN3C(=O)N4OS(=O)(=O)O)o2)C1 [Compound 754, (2S,5R)-2-(5-(2-((1s,3S)-3-aminocyclobutyl)ethyl)-1,3,4-oxadiazol-2-yl)-7-oxo-1,6-diazabicyclo[3.2.1]octan-6-yl hydrogen sulfate] | more active than Avibactam | more active than Avibactam |
| N[C@H]1C[C@H](CCc2nnc([C@@H]3CC[C@@H]4CN3C(=O)N4OS(=O)(=O)O)o2)C1 [Compound 753, (2S,5R)-2-(5-(2-((1r,3R)-3-aminocyclobutyl)ethyl)-1,3,4-oxadiazol-2-yl)-7-oxo-1,6-diazabicyclo[3.2.1]octan-6-yl hydrogen sulfate] | more active than Avibactam | more active than Avibactam |
| N[C@H]1CC[C@@H](c2nnc([C@@H]3CC[C@@H]4CN3C(=O)N4OS(=O)(=O)O)o2)C1 [Compound 768, (2S,5R)-2-(5-((1R,3S)-3-aminocyclopentyl)-1,3,4-oxadiazol-2-yl)-7-oxo-1,6-diazabicyclo[3.2.1]octan-6-yl hydrogen sulfate] | more active than Avibactam | more active than Avibactam |
| O=C1N2C[C@@H](CC[C@H]2c2nnco2)N1OS(=O)(=O)O [Compound 701, (2S,5R)-2-(1,3,4-oxadiazol-2-yl)-7-oxo-1,6-diazabicyclo[3.2.1]octan-6-yl hydrogen sulfate] | more active than Avibactam | more active than Avibactam |
| N[C@H]1C[C@@H](c2nnc([C@@H]3CC[C@@H]4CN3C(=O)N4OS(=O)(=O)O)s2)C1 [Compound 795, (2S,5R)-2-(5-((1s,3R)-3-aminocyclobutyl)-1,3,4-thiadiazol-2-yl)-7-oxo-1,6-diazabicyclo[3.2.1]octan-6-yl hydrogen sulfate] | more active than Avibactam | more active than Avibactam |
| CNCCCc1nnc([C@@H]2CC[C@@H]3CN2C(=O)N3OS(=O)(=O)O)o1 [Compound 734, (2S,5R)-2-(5-(3-(methylamino)propyl)-1,3,4-oxadiazol-2-yl)-7-oxo-1,6-diazabicyclo[3.2.1]octan-6-yl hydrogen sulfate] | more active than Avibactam | more active than Avibactam |
| CC(C)(N)Cc1nnc([C@@H]2CC[C@@H]3CN2C(=O)N3OS(=O)(=O)O)o1 [Compound 737, (2S,5R)-2-(5-(2-amino-2-methylpropyl)-1,3,4-oxadiazol-2-yl)-7-oxo-1,6-diazabicyclo[3.2.1]octan-6-yl hydrogen sulfate] | more active than Avibactam | more active than Avibactam |
| O=C1N2C[C@@H](CC[C@H]2c2nnc([C@H]3[C@@H]4CNC[C@@H]43)o2)N1OS(=O)(=O)O [Compound 740, (2S,5R)-2-(5-(3-azabicyclo[3.1.0]hexan-6-yl)-1,3,4-oxadiazol-2-yl)-7-oxo-1,6-diazabicyclo[3.2.1]octan-6-yl hydrogen sulfate] | more active than Avibactam | more active than Avibactam |
| O=C1N2C[C@@H](CC[C@H]2c2nnc(CN[C@H]3CCNC3)o2)N1OS(=O)(=O)O [Compound 765, (2S,5R)-7-oxo-2-(5-(((S)-pyrrolidin-3-ylamino)methyl)-1,3,4-oxadiazol-2-yl)-1,6-diazabicyclo[3.2.1]octan-6-yl hydrogen sulfate] | more active than Avibactam | more active than Avibactam |
| N=C(N)NCC1(c2nnc([C@@H]3CC[C@@H]4CN3C(=O)N4OS(=O)(=O)O)o2)CC1 [Compound 723, (2S,5R)-2-(5-(1-(guanidinomethyl)cyclopropyl)-1,3,4-oxadiazol-2-yl)-7-oxo-1,6-diazabicyclo[3.2.1]octan-6-yl hydrogen sulfate] | more active than Avibactam | more active than Avibactam |
| O=C1N2C[C@@H](CC[C@H]2c2nnc(CCNC3CNC3)o2)N1OS(=O)(=O)O [Compound 745, (2S,5R)-2-(5-(2-(azetidin-3-ylamino)ethyl)-1,3,4-oxadiazol-2-yl)-7-oxo-1,6-diazabicyclo[3.2.1]octan-6-yl hydrogen sulfate] | more active than Avibactam | more active than Avibactam |
| O=C1N2C[C@@H](CC[C@H]2c2nnc(CCN3CCNCC3)o2)N1OS(=O)(=O)O [Compound 776, (2S,5R)-7-oxo-2-(5-(2-(piperazin-1-yl)ethyl)-1,3,4-oxadiazol-2-yl)-1,6-diazabicyclo[3.2.1]octan-6-yl hydrogen sulfate] | more active than Avibactam | more active than Avibactam |
| O=C1N2C[C@@H](CC[C@H]2c2nnc([C@H]3CNCCN3)o2)N1OS(=O)(=O)O [Compound 779, (2S,5R)-7-oxo-2-(5-((R)-piperazin-2-yl)-1,3,4-oxadiazol-2-yl)-1,6-diazabicyclo[3.2.1]octan-6-yl hydrogen sulfate] | more active than Avibactam | more active than Avibactam |
| N[C@H]1C[C@@H](Cc2nnc([C@@H]3CC[C@@H]4CN3C(=O)N4OS(=O)(=O)O)o2)C1 [Compound 728, (2S,5R)-2-(5-(((1s,3R)-3-aminocyclobutyl)methyl)-1,3,4-oxadiazol-2-yl)-7-oxo-1,6-diazabicyclo[3.2.1]octan-6-yl hydrogen sulfate] | more active than Avibactam | more active than Avibactam |
| N=C(N)NCC(O)Cc1nnc([C@@H]2CC[C@@H]3CN2C(=O)N3OS(=O)(=O)O)o1 (stereo partly drawn) [Compound 730, (2S,5R)-2-(5-(3-guanidino-2-hydroxypropyl)-1,3,4-oxadiazol-2-yl)-7-oxo-1,6-diazabicyclo[3.2.1]octan-6-yl hydrogen sulfate] | more active than Avibactam | more active than Avibactam |
